Source: patent US8097585B2, “Methods of treating inflammation by administration of heme oxygenase-1 and products of heme degradation” (priority 2002, dated 2012)
Counter-ions that a name gives are not always drawn.

Assays:
HO-1 [1] = assay: HO-1 protein expression in heart and spleen after CoPPIX (Western blot); assay type: in vivo, DBA/2 mice; settings: CoPPIX 5 mg/kg i.p.
Experimental: Protein extraction and Western blot. DBA/2 mice were injected i.p. with CoPPIX at a dose of 5 mg/kg. Non-treated animals served as naïve controls. One, 2, 4, and 7 days following treatment, the heart and the spleen were excised from the animals, and samples were snap-frozen in liquid nitrogen. Protein extracts were prepared from the obtained tissues, electrophoresed under denaturing conditions (10% polyacrylamide gels) and transferred onto polyvinyldifluoridine membranes (Immobilon™ P, Millipore, Bedford, Mass.). HO-1 was detected using the rabbit anti-human HO-1 polyclonal antibody (Stress Gen Biotechnologies Corp., Victoria, Canada); α-actin was detected using the goat anti-mouse α-actin mAb (1A4, Sigma-Aldrich Corporation). Primary antibodies were detected using horseradish peroxidase conjugated donkey anti-rabbit or goat anti-mouse IgG secondary antibodies (Pierce, Rockford, Ill.). Protein was visualized using the Enhanced Chemi Luminescence (ECL™) Assay kit (Amersham Life Science Inc., Arlington Heights, Ill.), according to the manufacturer's instructions, and stored in the form of photo radiographs (Biomax™ MS, Eastman Kodak, Rochester, N.Y.). The amount of HO-1 expression was normalized with α-actin expression, and was quantified by using the ImageQuant™ software (Molecular Dynamics, Sunny Vale, Calif.).

B6AF1 splenocytes = assay: Mixed lymphocyte culture (irradiated DBA/2 splenocytes as stimulators) in vitro; assay type: cell-based, mouse; settings: biliverdin 10 μM
Experimental: Mixed lymphocyte culture (MLC). Irradiated (25Gy, ^137Cs) DBA/2 splenocytes (5×10^5/well) were co-cultured with responders (5×10^5/well) in a 96 well round bottom plates for 3 days at 37° C., 95% air with 5% CO2. When using cells from cardiac recipients as responders, the co-culture period was 3 days without any further in vitro treatment. ^3H-thymidine (1 μCi/well) was added 16 hours before termination of cell culture, and ^3H-thymidine incorporation was measured.

IL-1β = assay: Real time RT-PCR of graft muscularis after SITx, IL-1β; assay type: in vivo, LEW rats; settings: BV 50 mmol/kg i.p. donor and recipient; 4 hours; versus saline-treated graft
Experimental: (§1) Small Intestinal Transplantation. Orthotopic small intestinal transplantation (SITx) was performed in syngeneic Lewis rats. SITx with caval drainage was performed using a previously described procedure (Murase et al., in Handbook of Animal Models in Transplantation Research, Cramer et al., Eds. CRC Press, Boca Raton, Fla., pp. 203-213 (1994)). […] The graft was perfused via the aortic segment with 5 ml chilled Ringer's lactate solution, and the intestinal lumen was irrigated with 20 ml of cold saline solution containing 0.5% neomycin-sulfate (Sigma, St. Louis, Mo.). […]
(§2) SYBR green real time RT-PCR. The effects of administration of biliverdin on transplant-induced pro-inflammatory and anti-inflammatory gene expression were assessed in muscularis extracts by RT-PCR Biliverdin ([…], i.p.) was administered to both the donor and recipient three hours preoperatively. […] Equal aliquots (5 μg) of total RNA from each sample were quantified by spectrophotometry (wavelength […]) and aliquoted at a concentration of 40 ng/μl. Peak mRNA expression was quantified in duplicate by SYBR Green two-step, real-time RT-PCR. […] Real-time PCR data were plotted as the ΔRn fluorescence signal versus the cycle number. […] Quantification of mRNA expression was normalized to GAPDH and calculated relative to control using the comparative CT method (Schmittgen et al., J. Biochem. Biophys. Methods 46(1-2):69-8, 2000). […]

TNF-α = assay: Real time RT-PCR of graft muscularis after SITx, TNF-α; assay type: in vivo, LEW rats; settings: BV treatment, 4 hours
Experimental: as §1, §2

COX-2 = assay: Real time RT-PCR of graft muscularis after SITx, COX-2; assay type: in vivo, LEW rats; settings: BV treated rats
Experimental: as §1, §2

ICAM-1 = assay: Real time RT-PCR of graft muscularis after SITx, ICAM-1; assay type: in vivo, LEW rats; settings: BV treatment
Experimental: as §1, §2

HO-1 [2] = assay: HO-1 induction during intestinal I/R injury; assay type: in vivo, LEW rats; settings: BV treatment
Experimental: HO-1 Induction During Intestinal I/R Injury. Since HO-1 regulates heme catalysis and BV production, exogenously provided BV may influence endogenous HO-1 induction in BV-treated recipients. In the normal intestine, HO-1 protein expression was absent. Ischemia/reperfusion injury was associated with a gradual increase of HO-1 expression in air-treated grafts, reaching maximum level between 6 and 24 hours following reperfusion.

C=CC1=C(C)c2cc3[n-]c(cc4nc(cc5[n-]c(cc1n2)c(C)c5CCC(=O)[O-])C(CCC(=O)[O-])=C4C)c(C)c3C=C.[Co+2].[H+].[H+] [CoPP, Cobalt protoporphyrin]
HO-1 protein expression in the heart and spleen (HO-1 [1]): up-regulated
time of maximal HO-1 expression after injection (HO-1 [1]): one

C=CC1=C(C)/C(=C/C2=NC(=C\c3[nH]c(/C=C4\NC(=O)C(C)=C4C=C)c(C)c3CCC(=O)O)/C(CCC(=O)O)=C2C)NC1=O [biliverdin, biliverdin dihydrochloride]
alloantigen mediated T cell activation (proliferation) (B6AF1 splenocytes): significant suppressive effect
reduction of IL-1b mRNA expression (IL-1β): 30%
upregulation of TNF-α mRNA caused by transplantation (TNF-α): did not significantly change
reduction of mean relative COX-2 mRNA expression (COX-2): approximately 50%
reduction of ICAM-1 expression in the graft (ICAM-1): up to 30%
intestinal HO-1 production (HO-1 [2]): did not have a significant effect
